# Key:
# Format in all cases: in vivo
# [1] = system: Scirpus juncoides; test: Test Example 1: herbicidal activity, application before weed generation in submerged conditions (symbol B); conditions: application herbicide amount 320 g/ha
# How it was run: (§1)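 Steps: alluvial soil flooded to 4 cm; weed seeds sown together; rice seedlings (2.5 leaf) transplanted; diluted emulsion applied to water surface the same day as sowing; plants grown at 25–30 °C in greenhouse; herbicidal effect rated on a 0–5 scale at 3 weeks.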
# [2] = system: Monochoria vaginalis; test: Test Example 1: herbicidal activity, application before weed generation in submerged conditions (symbol C); conditions: application herbicide amount 320 g/ha
# How it was run: as §1
# [3] = system: Leptochloa chinensis; test: Test Example 3: herbicidal effect by foliage application, Wagner pot (symbol D); conditions: application herbicide amount 320 g/ha
# How it was run: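 Alluvial soil was flooded to a depth of 0.1–0.5 cm, seeded with the weeds and rice, and kept in a greenhouse at 25–30 °C. After 14 days of growth, the foliage received a small-sprayer application of emulsion diluted to the intended rate; injury was rated at 3 weeks.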
# [4] = system: Setaria viridis; test: Test Example 4: herbicidal effect by soil treatment (symbol G); conditions: application herbicide amount 320 g/ha
# How it was run: (§2)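 Seeds were sown in sterilized diluvial soil, covered with about 1.5 cm of soil, and the soil surface was sprayed with a water-diluted emulsion of the compound at a predetermined rate. Plants grew in a greenhouse at 25° C. to 30° C.; effects were scored visually 3 weeks after application.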
# [5] = system: Echinochloa crus-galli var. crus-galli; test: Test Example 4: herbicidal effect by soil treatment (symbol H); conditions: application herbicide amount 320 g/ha
# How it was run: as §2
# [6] = system: Lolium multiflorum Lam.; test: Test Example 4: herbicidal effect by soil treatment (symbol K); conditions: application herbicide amount 320 g/ha
# How it was run: as §2
# [7] = system: Apera spica-venti; test: Test Example 4: herbicidal effect by soil treatment (symbol L); conditions: application herbicide amount 320 g/ha
# How it was run: as §2
# [8] = system: Amaranthus retroflexus; test: Test Example 4: herbicidal effect by soil treatment (symbol N); conditions: application herbicide amount 320 g/ha
# How it was run: as §2
# [9] = system: Galium spurium; test: Test Example 4: herbicidal effect by soil treatment (symbol Q); conditions: application herbicide amount 320 g/ha
# How it was run: as §2
# [10] = system: corn; test: Test Example 4: effect on crop by soil treatment (symbol c); conditions: application herbicide amount 320 g/ha
# How it was run: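 Sterilized diluvial soil, spot sowing, ~1.5 cm soil cover; greenhouse 25–30° C.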
# [11] = system: rapeseed; test: Test Example 4: effect on crop by soil treatment (symbol g); conditions: application herbicide amount 320 g/ha
# How it was run: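 Crop seed is sown in spots together with several weed species in a box of sterilized diluvial soil. It is covered by about 1.5 cm of soil and kept in a greenhouse held between 25° C. and 30° C.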
# [12] = system: Setaria viridis; test: Test Example 5: herbicidal effect by foliage application, plastic box (symbol G); conditions: 320 g/ha, 3 weeks after application
# How it was run: (§3)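 Post-emergence spray; diluvial soil (sterilized), ~1.5 cm seed cover; greenhouse 25–30° C; 14-day-old plants; water-diluted emulsion at predetermined dose; visual score at 3 wk post-treatment.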
# [13] = system: Echinochloa crus-galli var. crus-galli; test: Test Example 5: herbicidal effect by foliage application, plastic box (symbol H); conditions: 320 g/ha, 3 weeks after application
# How it was run: as §3
# [14] = system: Alopecurus myosuroides; test: Test Example 5: herbicidal effect by foliage application, plastic box (symbol J); conditions: 320 g/ha, 3 weeks after application
# How it was run: as §3
# [15] = system: Stellaria media; test: Test Example 5: herbicidal effect by foliage application, plastic box (symbol P); conditions: 320 g/ha, 3 weeks after application
# How it was run: as §3
# [16] = system: Galium spurium; test: Test Example 5: herbicidal effect by foliage application, plastic box (symbol Q); conditions: 320 g/ha, 3 weeks after application
# How it was run: as §3
# [17] = system: wheat; test: Test Example 5: effect on crop by foliage application, plastic box (symbol e); conditions: 320 g/ha, 3 weeks after application
# How it was run: (§4)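 Crop seed is sown alongside grass and broadleaf weed species in spots in sterilized diluvial soil, then covered to a depth of about 1.5 cm. Plants grow in a greenhouse kept at 25° C. to 30° C.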
# [18] = system: rapeseed; test: Test Example 5: effect on crop by foliage application, plastic box (symbol g); conditions: 320 g/ha, 3 weeks after application
# How it was run: as §4
# [19] = system: Stellaria media; test: Test Example 4: herbicidal effect by soil treatment (symbol P); conditions: application herbicide amount 320 g/ha
# How it was run: as §2
SMILES,"Herbicidal effect grade, B: Scirpus juncoides [1]","Herbicidal effect grade, C: Monochoria vaginalis [2]","herbicidal effect on D (Leptochloa chinensis), grade 0-5 [3]",G (Setaria viridis) herbicidal effect grade [4],H (Echinochloa crus-galli var. crus-galli) herbicidal effect grade [5],K (Lolium multiflorum Lam.) herbicidal effect grade [6],L (Apera spica-venti) herbicidal effect grade [7],N (Amaranthus retroflexus) herbicidal effect grade [8],Q (Galium spurium) herbicidal effect grade [9],c (corn) effect on crop grade [10],g (rapeseed) effect on crop grade [11],"G: Setaria viridis, herbicidal effect grade [12]","H: Echinochloa crus-galli var. crus-galli, herbicidal effect grade [13]","J: Alopecurus myosuroides, herbicidal effect grade [14]","P: Stellaria media, herbicidal effect grade [15]","Q: Galium spurium, herbicidal effect grade [16]","e: wheat, effect on crop grade [17]","g: rapeseed, effect on crop grade [18]",P (Stellaria media) herbicidal effect grade [19]
CC(CC1CC(O)=C(c2c(C)cc(C)cc2C)C1=O)=NOCC(C)O (stereo not drawn) [1-027],3 (Herbicidal ratio of 40% or higher and lower than 70%),3 (Herbicidal ratio of 40% or higher and lower than 70%),5 (Herbicidal ratio of 90% or more (almost completely withered)),3 (Herbicidal ratio of 40% or higher and lower than 70%),5 (Herbicidal ratio of 90% or more (almost completely withered)),5 (Herbicidal ratio of 90% or more (almost completely withered)),5 (Herbicidal ratio of 90% or more (almost completely withered)),0 (Herbicidal ratio of 5% or lower (almost no effect)),0 (Herbicidal ratio of 5% or lower (almost no effect)),4 (Herbicidal ratio of 70% or higher and lower than 90%),4 (Herbicidal ratio of 70% or higher and lower than 90%),5 (Herbicidal ratio of 90% or more (almost completely withered)),5 (Herbicidal ratio of 90% or more (almost completely withered)),5 (Herbicidal ratio of 90% or more (almost completely withered)),1 (Herbicidal ratio of 5% or higher and lower than 20%),3 (Herbicidal ratio of 40% or higher and lower than 70%),4 (Herbicidal ratio of 70% or higher and lower than 90%),4 (Herbicidal ratio of 70% or higher and lower than 90%),
CON=C(C)CC1CC(OC(=O)COc2ccccc2)=C(c2c(C)cc(C)cc2C)C1=O (stereo not drawn) [1-043],5 (Herbicidal ratio of 90% or more (almost completely withered)),2 (Herbicidal ratio of 20% or higher and lower than 40%),5 (Herbicidal ratio of 90% or more (almost completely withered)),5 (Herbicidal ratio of 90% or more (almost completely withered)),5 (Herbicidal ratio of 90% or more (almost completely withered)),5 (Herbicidal ratio of 90% or more (almost completely withered)),5 (Herbicidal ratio of 90% or more (almost completely withered)),4 (Herbicidal ratio of 70% or higher and lower than 90%),0 (Herbicidal ratio of 5% or lower (almost no effect)),4 (Herbicidal ratio of 70% or higher and lower than 90%),5 (Herbicidal ratio of 90% or more (almost completely withered)),5 (Herbicidal ratio of 90% or more (almost completely withered)),5 (Herbicidal ratio of 90% or more (almost completely withered)),5 (Herbicidal ratio of 90% or more (almost completely withered)),4 (Herbicidal ratio of 70% or higher and lower than 90%),3 (Herbicidal ratio of 40% or higher and lower than 70%),5 (Herbicidal ratio of 90% or more (almost completely withered)),4 (Herbicidal ratio of 70% or higher and lower than 90%),
CON=C(CC1CC(O)=C(c2c(C)cc(C)cc2C)C1=O)C1CC1 (stereo not drawn) [1-046],5 (Herbicidal ratio of 90% or more (almost completely withered)),4 (Herbicidal ratio of 70% or higher and lower than 90%),5 (Herbicidal ratio of 90% or more (almost completely withered)),4 (Herbicidal ratio of 70% or higher and lower than 90%),5 (Herbicidal ratio of 90% or more (almost completely withered)),5 (Herbicidal ratio of 90% or more (almost completely withered)),5 (Herbicidal ratio of 90% or more (almost completely withered)),2 (Herbicidal ratio of 20% or higher and lower than 40%),0 (Herbicidal ratio of 5% or lower (almost no effect)),4 (Herbicidal ratio of 70% or higher and lower than 90%),4 (Herbicidal ratio of 70% or higher and lower than 90%),5 (Herbicidal ratio of 90% or more (almost completely withered)),5 (Herbicidal ratio of 90% or more (almost completely withered)),5 (Herbicidal ratio of 90% or more (almost completely withered)),2 (Herbicidal ratio of 20% or higher and lower than 40%),0 (Herbicidal ratio of 5% or lower (almost no effect)),4 (Herbicidal ratio of 70% or higher and lower than 90%),4 (Herbicidal ratio of 70% or higher and lower than 90%),
CON=C(CC1CC(O)=C(c2c(C)cc(C)cc2C)C1=O)c1ccccc1 (stereo not drawn) [1-047],0 (Herbicidal ratio of 5% or lower (almost no effect)),0 (Herbicidal ratio of 5% or lower (almost no effect)),3 (Herbicidal ratio of 40% or higher and lower than 70%),0 (Herbicidal ratio of 5% or lower (almost no effect)),3 (Herbicidal ratio of 40% or higher and lower than 70%),3 (Herbicidal ratio of 40% or higher and lower than 70%),0 (Herbicidal ratio of 5% or lower (almost no effect)),0 (Herbicidal ratio of 5% or lower (almost no effect)),0 (Herbicidal ratio of 5% or lower (almost no effect)),0 (Herbicidal ratio of 5% or lower (almost no effect)),,1 (Herbicidal ratio of 5% or higher and lower than 20%),3 (Herbicidal ratio of 40% or higher and lower than 70%),3 (Herbicidal ratio of 40% or higher and lower than 70%),0 (Herbicidal ratio of 5% or lower (almost no effect)),0 (Herbicidal ratio of 5% or lower (almost no effect)),0 (Herbicidal ratio of 5% or lower (almost no effect)),3 (Herbicidal ratio of 40% or higher and lower than 70%),0 (Herbicidal ratio of 5% or lower (almost no effect))

# — patent US11000033B2, “Ketone or oxime compound, and herbicide” (NISSAN CHEMICAL CORPORATION, priority 2014, dated 2021)
